According to ChEMBL document CHEMBL1128002, “Selective inhibitors of protein kinase C in a model of graft-vs-host disease” (Bioorg Med Chem Lett, 1994):

Key:
[1] = (§1) Inhibitory activity against protein kinase C from Jurkat cells.; format: cell-based
[2] = as §1; format: cell-based; design: concentration or dose not given beside the values; settings: dose or concentration not given here
Rattus norvegicus [3] = species on record: Rattus norvegicus; experiment: (§2) Inhibitory activity against graft vs host disease in rat.; format: functional, organism-based
Rattus norvegicus [4] = species on record: Rattus norvegicus; experiment: as §2; format: functional

Row | SMILES | IC50 [1] [µM] | inhibition [2] [%] | IC50 (Rattus norvegicus [3]) [µM] | Inhibition (Rattus norvegicus [4]) [%]
1 | COc1ccc(C2=NOC(=O)/C2=C\c2cccs2)cc1 | 0.7 | 100 | 11 | 44
2 | Oc1onc(-c2cccs2)c1/C=C1/C=Nc2ccccc21 |  | 48 |  | 
3 | O=C1ON=C(c2cccs2)/C1=C/c1ccccc1 | 15 | 81 | 4.4 | 88
4 | O=C1ON=C(c2ccccc2O)/C1=C/c1cccs1 | 25 |  |  | 20
5 | O=C1ON=C(c2cccs2)/C1=C/c1ccoc1 | 1.7 | 100 | 3.6 | 94
6 | COc1ccc(OC)c(C2=NOC(=O)/C2=C\c2cccs2)c1 | 1.9 | 100 | 7.9 | 59
7 | O=C(O)COc1ccc(/C=C2\C(=O)ON=C2c2cccs2)cc1 | 8.2 |  | 100 | -7
8 | O=C1ON=C(c2cccs2)/C1=C/c1ccc(F)cc1 | 8.8 | 98 | 4.8 | 92
9 | Oc1onc(-c2cccs2)c1/C=C1\C=CC=N1 |  | 8.9 |  | 
10 | COc1cccc(/C=C2\C(=O)ON=C2c2cccs2)c1 | 22 | 65 |  | 66
11 | O=C1ON=C(c2cccs2)/C1=C/c1cccc(Cl)c1 | 23 | 24 |  | 
12 | COc1ccc(/C=C2\C(=O)ON=C2c2cccs2)c(OC)c1 | > 100 | 35 |  | 
13 | Cc1cc(/C=C2\C(=O)ON=C2c2cccs2)cc(C)c1O | 2.5 |  | 2.6 | 
14 | CN(C)c1ccc(/C=C2\C(=O)ON=C2c2cccs2)cc1 | 2.1 | 88 | 4.2 | 89
15 | O=C1ON=C(c2cccs2)/C1=C/c1ccc(O)cc1 | 3.5 | 93 | 4.2 | 87
16 | COc1ccccc1C1=NOC(=O)/C1=C\c1cccs1 | 1.2 | 100 | 7.1 | 66
17 | O=C1ON=C(c2ccccc2)/C1=C/c1ccco1 | 0.9 | 84 | 2.9 | 89
18 | O=C1ON=C(c2cccs2)C1=CC=Cc1ccccc1 | 1 |  | 3 | 93
19 | O=C1ON=C(c2cccs2)/C1=C/c1cccc(O)c1 | 9.9 |  |  | 58

Row | SMILES | IC50 [1] [µM] | inhibition [2] [%] | IC50 (Rattus norvegicus [3]) [µM] | Inhibition (Rattus norvegicus [4]) [%]
20 | CC(=O)Oc1ccc(/C=C2\C(=O)ON=C2c2cccs2)cc1 | 11 | 81 | 4.5 | 65
21 | O=C1ON=C(c2cccs2)/C1=C/c1ccco1 | 1.4 | 100 | 5.8 | 88
22 | O=C1ON=C(c2cccs2)/C1=C/c1ccsc1 | 2.9 | 100 | 3 | 95
23 | Cc1cc(O)cc(C)c1/C=C1\C(=O)ON=C1c1cccs1 | 5.3 | 78 | 1.6 | 88
24 | O=C1ON=C(c2cccs2)/C1=C/c1ccc(O)c(O)c1 | 3.5 |  | 3.4 | 87
25 | O=C1ON=C(c2ccccc2)/C1=C/c1ccccc1 | 14 |  |  | 
26 | Cn1cc(/C=C2\C(=O)ON=C2c2cccs2)c2ccccc21 |  | 21 |  | 
27 | O=C1ON=C(c2ccc([N+](=O)[O-])cc2)/C1=C/c1cccs1 |  | 0 |  | 
28 | CC(C)(C)c1cc(/C=C2\C(=O)ON=C2c2cccs2)cc(C(C)(C)C)c1O | 35 |  |  | 
29 | COc1cc(/C=C2\C(=O)ON=C2c2cccs2)ccc1OC(C)=O | 11 | 82 |  | 43
30 | COc1cc(/C=C2\C(=O)ON=C2c2cccs2)cc(OC)c1O | 11 |  |  | 72
31 | Nc1ccc(C2=NOC(=O)/C2=C\c2cccs2)cc1 |  | 0 |  | 
32 | O=C1ON=C(c2cccs2)/C1=C/c1cccs1 | 1 | 100 | 3.7 | 97
33 | O=C1ON=C(c2cccs2)/C1=C/c1ccc(Cl)cc1 | 11 | 82 | 6.2 | 71
34 | CC1=CC(C)=N/C1=C/c1c(-c2cccs2)noc1O |  | 19 |  | 
35 | O=C1ON=C(c2cccs2)/C1=C/c1ccccc1O | 5.5 |  | 5.7 | 87
36 | COc1ccc(/C=C2\C(=O)ON=C2c2cccs2)cc1 | 1.2 | 89 | 2.5 | 96
37 | O=C1ON=C(c2cccs2)/C1=C/c1ccc(Br)cc1 | 84 | 100 |  | 91
